Test results reported in the supplement of paper PMC11208160.

test: recombinant barcode read abundance after kanamycin selection (control-corrected) (log10(CPM+1)); higher = more efficient recombination; sequences stand for … in AGTGCAGAGAAAATCGGCCAGTTTTCTCTGCCTGCAGTCCGCATGCCGT…AGATTTATGCAGCGGACTGCCTTTCTCCCAAAGTGATAAACCGGACAGTATCATGGACCGGTTTTCCCGGTAATCCGTATTTGCAAGGTTGGTTTCACT; site = the 11-nt target
Outline: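 Recombination efficiency draws on barcodes counted at recombinant junctions in a pooled E. coli screen of targets paired with IS621 bridge RNA target-binding loops. The counts were converted to counts per million, averaged and corrected against the chloramphenicol/ampicillin LB agar control, then reported as log10(CPM+1). Selection plates held chloramphenicol/ampicillin/kanamycin with 0.1 mM IPTG, with two replicates per condition.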
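Note: IS621 recombinase and bridge RNA in Escherichia coli cells.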

In order of rising “recombinant barcode read abundance (log10)” value:
1. CACAGACCTTGGGTTCTAACCTGTTGCCT (site AACAGACCTAG)  0.00929
2. CAATGGTCTTGGGTTCTAACCTGTTGCCT (site CAATGGTCTAC)  0.0107
3. CAAAGGTCTTGGGTTCTAACCTGTTGCTA (site TAAAGGCCTTA)  0.0182
4. CAAAGGCCTTGGGTTCTAACCTGTTGCCT (site CAACGGCCTAG)  0.0335
5. CACGAGCCTTGGGTTCTAACCTGTTGCCT (site CACGAGGCTAG)  0.0367
6. CACAGTACTTGGGTTCTAACCTGTTGCCT (site TACAGTACTAG)  0.0394
7. CACAGTACTTGGGTTCTAACCTGTTGCCT (site AACAGTACTAG)  0.0407
8. CAAAGATCTTGGGTTCTAACCTGTTGCTT (site CAGAGATCTAA)  0.0421
9. CAAACTCCTTGGGTTCTAACCTGTTGCTT (site CAAACTCCTAC)  0.0428
10. CAAAGATCTTGGGTTCTAACCTGTTGCTT (site CACAGATCTAA)  0.046
11. CACAGTCCTTGGGTTCTAACCTGTTGCTA (site AGGGTCGCTAG)  0.049
12. CACGGGCCTTGGGTTCTAACCTGTTGCCT (site GACAGGCCTAG)  0.0551
13. CAAACTCCTTGGGTTCTAACCTGTTGCCT (site CAAACTCCTAT)  0.067
14. CACAGATCTTGGGTTCTAACCTGTTGCTT (site CATAGATCTAA)  0.0763
15. CAAACTCCTTGGGTTCTAACCTGTTGCTT (site CAAACTCCTAT)  0.0809
16. CAACCACCTTGGGTTCTAACCTGTTGCTT (site CAAGCACCTAA)  0.0953
17. CACAATCCTTGGGTTCTAACCTGTTGCGT (site CACACACCTAC)  0.0965
18. CACCAAACTTGGGTTCTAACCTGTTGCCT (site CACCAACCTAG)  0.0986
19. CACACGTCTTGGGTTCTAACCTGTTGCCT (site CACACGACTAG)  0.103
20. CAAAGATCTTGGGTTCTAACCTGTTGCTT (site CATAGATCTAA)  0.108
21. CACACGACTTGGGTTCTAACCTGTTGCCT (site CACACGTCTAG)  0.109
22. CACAGATCTTGGGTTCTAACCTGTTGCTT (site CAGAGATCTAA)  0.122
23. CAAAGACCTTGGGTTCTAACCTGTTGCGG (site AAAATACCTCC)  0.14
24. CAAGTTGCTTGGGTTCTAACCTGTTGCCT (site CAAGTAGCTAG)  0.14
25. CACAGATCTTGGGTTCTAACCTGTTGCTT (site CAAAGATCTAA)  0.14
26. CAACCACCTTGGGTTCTAACCTGTTGCTT (site CAAACACCTAA)  0.142
27. CACCGAGCTTGGGTTCTAACCTGTTGCCG (site CATCGAGCTCG)  0.145
28. CACGAGCCTTGGGTTCTAACCTGTTGCCT (site CACGAGACTAG)  0.149
29. CAAAGGCCTTGGGTTCTAACCTGTTGCCT (site CAATGGCCTAG)  0.157
30. CAACACCCTTGGGTTCTAACCTGTTGCAT (site GTTTCAACTTG)  0.157
31. CAACCACCTTGGGTTCTAACCTGTTGCTT (site CAATCACCTAA)  0.159
32. CAAAGGCCTTGGGTTCTAACCTGTTGCCT (site CAAAGGCCTAG)  0.173
33. CAATGGGCTTGGGTTCTAACCTGTTGCCG (site CGATGGACTCG)  0.179
34. CAAGTACCTTGGGTTCTAACCTGTTGCCT (site GAAGTACCTAG)  0.185
35. CAAACTCCTTGGGTTCTAACCTGTTGCTT (site CAAACTCCTAA)  0.191
36. CAAAGTGCTTGGGTTCTAACCTGTTGCCT (site GAAAGTGCTAG)  0.205
37. CACAGACCTTGGGTTCTAACCTGTTGCCT (site GACAGACCTAG)  0.205
38. CACGCATCTTGGGTTCTAACCTGTTGCCT (site CACCAATCTAG)  0.211
39. CAAGTACCTTGGGTTCTAACCTGTTGCCT (site TAAGTACCTAG)  0.22
40. CAAACTCCTTGGGTTCTAACCTGTTGCTT (site CAAACTCCTAG)  0.221
41. CACCGAGCTTGGGTTCTAACCTGTTGCCG (site CAACGAGCTCG)  0.223
42. CAAGTTGCTTGGGTTCTAACCTGTTGCCT (site CAAGTGGCTAG)  0.227
43. CAAAGGCCTTGGGTTCTAACCTGTTGCCT (site CAAGGGCCTAG)  0.228
44. CAAACTCCTTGGGTTCTAACCTGTTGCCT (site CAAACTCCTAG)  0.238
45. CACACTACTTGGGTTCTAACCTGTTGCTG (site GGTGAGCCTAC)  0.24
46. CACAGACCTTGGGTTCTAACCTGTTGCCT (site TACAGACCTAG)  0.251
47. CACAGTACTTGGGTTCTAACCTGTTGCCT (site GACAGTACTAG)  0.29
48. CAAATGTCTTGGGTTCTAACCTGTTGCCT (site AAAATGCCTAG)  0.299
49. CACCAAACTTGGGTTCTAACCTGTTGCCT (site CACCAAACTAG)  0.299
50. CAAGTTGCTTGGGTTCTAACCTGTTGCCT (site CAAGTCGCTAG)  0.305
51. CAAGTACCTTGGGTTCTAACCTGTTGCCT (site AAAGTACCTAG)  0.343
52. CACAGATCTTGGGTTCTAACCTGTTGCTT (site CACAGATCTAA)  0.351
53. CACCACCCTTGGGTTCTAACCTGTTGCGG (site GGTACTTCTAA)  0.358
54. CAATGGTCTTGGGTTCTAACCTGTTGCCT (site CAATGGTCTAA)  0.376
55. CACGGGCCTTGGGTTCTAACCTGTTGCCT (site CACGGGCCTAG)  0.466
56. CAAAGTGCTTGGGTTCTAACCTGTTGCCT (site CAAAGTGCTAG)  0.517
57. CACCGAGCTTGGGTTCTAACCTGTTGCCG (site CAGCGAGCTCG)  0.534
58. CACCGAGCTTGGGTTCTAACCTGTTGCCG (site CACCGAGCTCG)  0.577
59. CAATGGTCTTGGGTTCTAACCTGTTGCGT (site CAATGGTCTAA)  0.583
60. CACGGAACTTGGGTTCTAACCTGTTGCCT (site CACGTTACTAG)  0.59
61. CAATGGTCTTGGGTTCTAACCTGTTGCGT (site CAATGGTCTAG)  0.638
62. CAAGTACCTTGGGTTCTAACCTGTTGCCT (site CAAGTACCTAG)  0.688
63. CACACTACTTGGGTTCTAACCTGTTGCTG (site CACACTACTCA)  0.818
64. CACGCATCTTGGGTTCTAACCTGTTGCCT (site CACGCATCTAG)  0.822
65. CACAGTACTTGGGTTCTAACCTGTTGCCT (site CACAGTACTAG)  0.901
66. CAATGGTCTTGGGTTCTAACCTGTTGCCT (site CAATGGTCTAT)  0.939
67. CAATGGGCTTGGGTTCTAACCTGTTGCCG (site CAATGGGCTCG)  0.961
68. CACAGTCCTTGGGTTCTAACCTGTTGCTA (site CACAGTCCTTA)  0.966
69. CACACGACTTGGGTTCTAACCTGTTGCCT (site CACACGACTAG)  0.99
70. CAAAGATCTTGGGTTCTAACCTGTTGCTT (site CAAAGATCTAA)  1.03
71. CAAATGTCTTGGGTTCTAACCTGTTGCCT (site CAAATGTCTAG)  1.1
72. CACACGTCTTGGGTTCTAACCTGTTGCCT (site CACACGTCTAG)  1.24
73. CACCACCCTTGGGTTCTAACCTGTTGCGG (site CACCACCCTCC)  1.35
74. CAAAGGTCTTGGGTTCTAACCTGTTGCTA (site CAAAGGTCTTA)  1.39
75. CAACCACCTTGGGTTCTAACCTGTTGCTT (site CAACCACCTAA)  1.41
76. CAAGTTGCTTGGGTTCTAACCTGTTGCCT (site CAAGTTGCTAG)  1.43
77. CACAGACCTTGGGTTCTAACCTGTTGCCT (site CACAGACCTAG)  1.47
78. CAATGGTCTTGGGTTCTAACCTGTTGCCT (site CAATGGTCTAG)  1.54
79. CACGAGCCTTGGGTTCTAACCTGTTGCCT (site CACGAGTCTAG)  1.63
80. CACAATCCTTGGGTTCTAACCTGTTGCGT (site CACAATCCTAC)  1.76
81. CACGGAACTTGGGTTCTAACCTGTTGCCT (site CACGGAACTAG)  1.82
82. CAAAGACCTTGGGTTCTAACCTGTTGCGG (site CAAAGACCTCC)  2.06
83. CAATGGTCTTGGGTTCTAACCTGTTGCGT (site CAATGGTCTAT)  2.16
84. CACGAGCCTTGGGTTCTAACCTGTTGCCT (site CACGAGCCTAG)  2.24
85. CAACACCCTTGGGTTCTAACCTGTTGCAT (site CAACACCCTAT)  2.33
86. CAATGGTCTTGGGTTCTAACCTGTTGCGT (site CAATGGTCTAC)  3.06
